Assays:
[1] = tested on: Herpes Simplex Virus Type 2 (HSV-2) Strain G (ATCC VR-734); assay: Protective action in a model of herpetic infection in mice; format: in vivo, White outbred mice; conditions: HSV-2 vaginal infection, 1.25 mg/kg (Acyclovir 50 mg/kg); for N14, number of animal deaths in a group on the 14th day after infection: 20 mice per group; for N14, number of animal deaths in a group on the 14th day after infection / M, mortality rate: i.p. once a day for 3 days; for M, mortality rate / IP, index of protection: 14 days follow-up; for IP, index of protection: relative to control mortality 60.0%
Description: The developed compositions were assessed for their protective action on the basis of a herpetic infection model. The following reference products were used: 1/Allokin-alfa, Lyophilisate for Solution for Subcutaneous Administration, a medicinal product used to treat genital herpes, containing 1 mg of alloferon per ampoule; 2/Acyclovir, a medicinal product used in the conventional herpes therapy.
White outbred mice (females) weighing 16 to 20 g were received from Rappolovo Nursery (Leningrad Oblast) and maintained on a standard diet under controlled vivarium conditions. The animals for the experimental groups were selected on a random basis. The animals were divided into 5 groups of 20 animals each: four experimental groups in which the animals received injections of Composition 1, Composition 2, Allokin-alfa, and Acyclovir, respectively, and one control group in which the animals received injections of 0.9% sodium chloride solution.
The study was made with the use of Herpes Simplex Virus Type 2 (HSV-2) Strain G (ATCC VR-734). The infection was introduced vaginally. Vaginal epithelium was injured with the use of a vaginal smearing scarifier, after which the animals were infected with the virus at a dose of 1.7×10^5TCID50 in the amount of 30 mcL.
Allokin-alfa and Compositions 1 and 2 were administered to the animals intraperitoneally at a dose of 1.25 mg/kg once a day for 3 days after the infection introduction. Acyclovir was administered in accordance with the same scheme at a dose of 50 mg/kg. The control group received injections of 0.9% sodium chloride solution.
The animals were followed up for 14 days. Mortality in the control and experimental groups were recorded on a daily basis. Based on the data so obtained, mortality rates M (the ratio of animal deaths over 14 days to the total number of infected animals in a group) and the index of protection IP (the ratio between the difference of the control and experimental groups' mortality rates and the control group lethality rate) were calculated.

Interferon Gamma = assay: Interferon gamma (IFN-γ) induction in mouse blood serum, solid phase immunoassay; format: in vivo; conditions: BALB/C mice, subcutaneous single dose 1 mg alloferon/kg; serum 3 hours after administration
Description: Furthermore, cytokine induction caused by using both components (alloferon and the zinc salt), where administered to a body separately in time, were determined. Six samples were tested: • 1. Alloferon (Allokin-alfa, Lyophilisate for Solution for Subcutaneous Administration)—a reference product, • 2. Composition 1, • 3. Composition 2, • 4. […] 0.9% sodium chloride solution—control.
(§1) Samples 1, 2, 3, and 5 contained alloferon at the concentration of 1 mg/mL. The alloferon solution in Samples 1 and 5 was produced by dissolving the contents of an Allokin-alfa ampoule (1 mg of alloferon) in 1 mL of 0.9% sodium chloride solution. […] To determine the background content of IFN-γ and IL-18 in the subject animals' blood serum, a 0.9% sodium chloride solution was used.
(§2) The experiments enrolled BALB/C mice, females, weighing 16 to 22 grams, 18 weeks of age, divided into 6 groups of 15 individuals each. The samples were administered subcutaneously in a single dose of 1 mg of alloferon per 1 kg laboratory animal body weight. Sample 5 components were administered separately, one 15 minutes after the other.

Interleukin 18 = Interleukin 18 (IL-18) induction in mouse blood serum; format: in vivo; conditions: BALB/C mice, subcutaneous single dose 1 mg alloferon/kg; serum 36 hours after administration
Description: Six samples were tested: • 1. Alloferon (Allokin-alfa, Lyophilisate for Solution for Subcutaneous Administration)—a reference product, • 2. Composition 1, • 3. Composition 2, • 4. […] 0.9% sodium chloride solution—control.
as §1, §2
In case of the control group, the confidence interval was calculated based on measurements of the same sample dilutions. For the experimental groups, the confidence interval was calculated based on three samples from three animals for each measuring point.

| Compound | N14, number of animal deaths in a group on the 14th day after infection [1] | M, mortality rate [1] [%] | IP, index of protection [1] [%] | Interferon Gamma, after 3 hours (mg/mL of blood serum) (Interferon Gamma) | Interleukin 18, after 36 hours (mg/mL of blood serum) (Interleukin 18) |
| --- | --- | --- | --- | --- | --- |
| Nc1nc2c(ncn2COCCO)c(=O)[nH]1 [Acyclovir] | 3 | 15.0 | 75.0 | – | – |
| CC(=O)[O-].CC(=O)[O-].[Zn+2] [Zinc acetate] | – | – | – | 82 ± 8 mg/mL of blood serum | 194 ± 12 mg/mL of blood serum |
| alloferon | 4 | 20.0 | 66.7 | 95 ± 16 mg/mL of blood serum | 360 ± 20 mg/mL of blood serum |
